SMILES strings stand for the structures. “Also recorded” adds a separate entry of the source.

In the first test the test system is KM12 cells. Put plainly: Cell viability assay (CellTiter-Glo) in KM12 cells. The settings on record: 500 nM, 12-point 2-fold serial dilution, 3 days (FIG. 4A). Format: cell-based. (In general: ATP-based viability assays read luminescence as a measure of living cells.)
On to `O=C1CCC(N2C(=O)c3cccc(NCCOCCOCCOCCC(=O)N4CCN(c5cccc(-c6cnc7ccc(N8CCC[C@@H]8c8cccc(F)c8)nn67)n5)CC4)c3C2=O)C(=O)N1` (stereo partly drawn) [CPD-010, 2-(2,6-Dioxopiperidin-3-yl)-4-((2-(2-(2-(3-(4-(6-(6-((R)-2-(3-fluorophenyl)pyrrolidin-1-yl)imidazo[1,2-b]pyridazin-3-yl)pyridin-2-yl)piperazin-1-yl)-3-oxopropoxy)ethoxy)ethoxy)ethyl)amino)isoindoline-1,3-dione], for which the “viability of KM12 cells” value was “inhibited the viability; also recorded: dose-dependently suppressed viability”.

The test is the same for the next values; noted with them: Homo sapiens, 72 h; Table 2; KM12 cell viability, CellTiter-Glo, 3 days; read-out: IC50.
As for `Cc1ncsc1-c1ccc(CNC(=O)[C@@H]2C[C@@H](O)CN2C(=O)[C@@H](NC(=O)CCOCCC(=O)N2CCN(c3cccc(-c4cnc5ccc(N6CCC[C@@H]6c6cccc(F)c6)nn45)n3)CC2)C(C)(C)C)cc1` [CPD-007, (2S,4R)-1-((S)-2-(3-(3-(4-(6-(6-((R)-2-(3-Fluorophenyl)pyrrolidin-1-yl)imidazo[1,2-b]pyridazin-3-yl)pyridin-2-yl)piperazin-1-yl)-3-oxopropoxy)propanamido)-3,3-dimethylbutanoyl)-4-hydroxy-N-(4-(4-methylthiazol-5-yl)benzyl)pyrrolidine-2-carboxamide], the IC50 – broadly, the concentration at which inhibition is half-maximal – was > 1000 nM.

As to `Cc1ncsc1-c1ccc(CNC(=O)[C@@H]2C[C@@H](O)CN2C(=O)[C@@H](NC(=O)COCC(=O)N2CCN(c3cccc(-c4cnc5ccc(N6CCC[C@@H]6c6cccc(F)c6)nn45)n3)CC2)C(C)(C)C)cc1` [CPD-008, (2S,4R)-1-((S)-2-(2-(2-(4-(6-(6-((R)-2-(3-Fluorophenyl)pyrrolidin-1-yl)imidazo[1,2-b]pyridazin-3-yl)pyridin-2-yl)piperazin-1-yl)-2-oxoethoxy)acetamido)-3,3-dimethylbutanoyl)-4-hydroxy-N-(4-(4-methylthiazol-5-yl)benzyl)pyrrolidine-2-carboxamide], the IC50 is > 1000 nM.

Consider `O=C1CCC(N2C(=O)c3cccc(NCCCCCCC(=O)N4CCN(c5cccc(-c6cnc7ccc(N8CCC[C@@H]8c8cccc(F)c8)nn67)n5)CC4)c3C2=O)C(=O)N1` (stereo partly drawn) [CPD-009, 2-(2,6-Dioxopiperidin-3-yl)-4-((7-(4-(6-(6-((R)-2-(3-fluorophenyl)pyrrolidin-1-yl)imidazo[1,2-b]pyridazin-3-yl)pyridin-2-yl)piperazin-1-yl)-7-oxoheptyl)amino)isoindoline-1,3-dione], for which the IC50 came to 35 nM.

As to `O=C1CCC(N2C(=O)c3cccc(NCCOCCOCCOCCC(=O)N4CCN(c5cccc(-c6cnc7ccc(N8CCC[C@@H]8c8cccc(F)c8)nn67)n5)CC4)c3C2=O)C(=O)N1` (stereo partly drawn) [CPD-010, 2-(2,6-Dioxopiperidin-3-yl)-4-((2-(2-(2-(3-(4-(6-(6-((R)-2-(3-fluorophenyl)pyrrolidin-1-yl)imidazo[1,2-b]pyridazin-3-yl)pyridin-2-yl)piperazin-1-yl)-3-oxopropoxy)ethoxy)ethoxy)ethyl)amino)isoindoline-1,3-dione], the IC50 was determined as 30 nM.

As to `Cc1ncsc1-c1ccc(CNC(=O)[C@@H]2C[C@@H](O)CN2C(=O)[C@@H](NC(=O)COCCOCCOCC(=O)N2CCN(c3cccc(-c4cnc5ccc(N6CCC[C@@H]6c6cccc(F)c6)nn45)n3)CC2)C(C)(C)C)cc1` [CPD-011, (2S,4R)-1-((S)-2-(tert-butyl)-14-(4-(6-(6-((R)-2-(3-Fluorophenyl)pyrrolidin-1-yl)imidazo[1,2-b]pyridazin-3-yl)pyridin-2-yl)piperazin-1-yl)-4,14-dioxo-6,9,12-trioxa-3-azatetradecanoyl)-4-hydroxy-N-(4-(4-methylthiazol-5-yl)benzyl)pyrrolidine-2-carboxamide], the IC50 was > 1000 nM.

On to `Cc1ncsc1-c1ccc(CNC(=O)[C@@H]2C[C@@H](O)CN2C(=O)[C@@H](NC(=O)CCCC(=O)N2CCN(c3cccc(-c4cnc5ccc(N6CCC[C@@H]6c6cccc(F)c6)nn45)n3)CC2)C(C)(C)C)cc1` [CPD-012, (2S,4R)-1-((S)-2-(5-(4-(6-(6-((R)-2-(3-Fluorophenyl)pyrrolidin-1-yl)imidazo[1,2-b]pyridazin-3-yl)pyridin-2-yl)piperazin-1-yl)-5-oxopentanamido)-3,3-dimethylbutanoyl)-4-hydroxy-N-(4-(4-methylthiazol-5-yl)benzyl)pyrrolidine-2-carboxamide], for which the IC50 is > 1000 nM.

Consider `O=C1CCC(N2C(=O)c3cccc(NCCCC(=O)N4CCN(c5cccc(-c6cnc7ccc(N8CCC[C@@H]8c8cccc(F)c8)nn67)n5)CC4)c3C2=O)C(=O)N1` (stereo partly drawn) [CPD-013, 2-(2,6-Dioxopiperidin-3-yl)-4-((4-(4-(6-(6-((R)-2-(3-fluorophenyl)pyrrolidin-1-yl)imidazo[1,2-b]pyridazin-3-yl)pyridin-2-yl)piperazin-1-yl)-4-oxobutyl)amino)isoindoline-1,3-dione], for which the IC50 was determined as 10.2 nM.

For `O=C1CCC(N2C(=O)c3cccc(NCCCCC(=O)N4CCN(c5cccc(-c6cnc7ccc(N8CCC[C@@H]8c8cccc(F)c8)nn67)n5)CC4)c3C2=O)C(=O)N1` (stereo partly drawn) [CPD-014, 2-(2,6-Dioxopiperidin-3-yl)-4-((5-(4-(6-(6-((R)-2-(3-fluorophenyl)pyrrolidin-1-yl)imidazo[1,2-b]pyridazin-3-yl)pyridin-2-yl)piperazin-1-yl)-5-oxopentyl)amino)isoindoline-1,3-dione], the IC50 was 7.9 nM.

As for `O=C1CCC(N2C(=O)c3cccc(NCCCCCC(=O)N4CCN(c5cccc(-c6cnc7ccc(N8CCC[C@@H]8c8cccc(F)c8)nn67)n5)CC4)c3C2=O)C(=O)N1` (stereo partly drawn) [CPD-015], the IC50 came out at 14.9 nM.

With `Cc1ncsc1-c1ccc(CNC(=O)[C@@H]2C[C@@H](O)CN2C(=O)[C@@H](NC(=O)CCOCCOCCOCCC(=O)N2CCN(c3cccc(-c4cnc5ccc(N6CCC[C@@H]6c6cccc(F)c6)nn45)n3)CC2)C(C)(C)C)cc1` [CPD-016, (2S,4R)-1-((S)-2-(tert-butyl)-16-(4-(6-(6-((R)-2-(3-Fluorophenyl)pyrrolidin-1-yl)imidazo[1,2-b]pyridazin-3-yl)pyridin-2-yl)piperazin-1-yl)-4,16-dioxo-7,10,13-trioxa-3-azahexadecanoyl)-4-hydroxy-N-(4-(4-methylthiazol-5-yl)benzyl)pyrrolidine-2-carboxamide], the IC50 was found to be 150 nM.

On to `Cc1ncsc1-c1ccc(CNC(=O)[C@@H]2C[C@@H](O)CN2C(=O)[C@@H](NC(=O)CCCCCCCCC(=O)N2CCN(c3cccc(-c4cnc5ccc(N6CCC[C@@H]6c6cccc(F)c6)nn45)n3)CC2)C(C)(C)C)cc1` [CPD-017, (2S,4R)-1-((S)-2-(10-(4-(6-(6-((R)-2-(3-Fluorophenyl)pyrrolidin-1-yl)imidazo[1,2-b]pyridazin-3-yl)pyridin-2-yl)piperazin-1-yl)-10-oxodecanamido)-3,3-dimethylbutanoyl)-4-hydroxy-N-(4-(4-methylthiazol-5-yl)benzyl)pyrrolidine-2-carboxamide], for which the IC50 is 145 nM.

Consider `Cc1ncsc1-c1ccc(CNC(=O)[C@@H]2C[C@@H](O)CN2C(=O)[C@@H](NC(=O)CCCCCCCC(=O)N2CCN(c3cccc(-c4cnc5ccc(N6CCC[C@@H]6c6cccc(F)c6)nn45)n3)CC2)C(C)(C)C)cc1` [CPD-018, (2S,4R)-1-((S)-2-(9-(4-(6-(6-((R)-2-(3-Fluorophenyl)pyrrolidin-1-yl)imidazo[1,2-b]pyridazin-3-yl)pyridin-2-yl)piperazin-1-yl)-9-oxononanamido)-3,3-dimethylbutanoyl)-4-hydroxy-N-(4-(4-methylthiazol-5-yl)benzyl)pyrrolidine-2-carboxamide], for which the IC50 stood at 258 nM.

For the molecule `Cc1ncsc1-c1ccc(CNC(=O)[C@@H]2C[C@@H](O)CN2C(=O)[C@@H](NC(=O)CCOCCOCCOCCOCCC(=O)N2CCN(c3cccc(-c4cnc5ccc(N6CCC[C@@H]6c6cccc(F)c6)nn45)n3)CC2)C(C)(C)C)cc1` [CPD-019, (2S,4R)-1-((S)-2-(tert-butyl)-19-(4-(6-(6-((R)-2-(3-Fluorophenyl)pyrrolidin-1-yl)imidazo[1,2-b]pyridazin-3-yl)pyridin-2-yl)piperazin-1-yl)-4,19-dioxo-7,10,13,16-tetraoxa-3-azanonadecanoyl)-4-hydroxy-N-(4-(4-methylthiazol-5-yl)benzyl)pyrrolidine-2-carboxamide], the IC50 came to 500 nM.

`Cc1ncsc1-c1ccc(CNC(=O)[C@@H]2C[C@@H](O)CN2C(=O)[C@@H](NC(=O)CCOCCOCCC(=O)N2CCN(c3cccc(-c4cnc5ccc(N6CCC[C@@H]6c6cccc(F)c6)nn45)n3)CC2)C(C)(C)C)cc1` [CPD-020, (2S,4R)-1-((S)-2-(3-(2-(3-(4-(6-(6-((R)-2-(3-Fluorophenyl)pyrrolidin-1-yl)imidazo[1,2-b]pyridazin-3-yl)pyridin-2-yl)piperazin-1-yl)-3-oxopropoxy)ethoxy)propanamido)-3,3-dimethylbutanoyl)-4-hydroxy-N-(4-(4-methylthiazol-5-yl)benzyl)pyrrolidine-2-carboxamide]: the IC50 was 200 nM.

In the case of `O=C1CCC(N2C(=O)c3cccc(NCCOCCOCCOCCOCCC(=O)N4CCN(c5cccc(-c6cnc7ccc(N8CCC[C@@H]8c8cccc(F)c8)nn67)n5)CC4)c3C2=O)C(=O)N1` (stereo partly drawn) [CPD-021, 2-(2,6-Dioxopiperidin-3-yl)-4-((15-(4-(6-(6-((R)-2-(3-fluorophenyl)pyrrolidin-1-yl)imidazo[1,2-b]pyridazin-3-yl)pyridin-2-yl)piperazin-1-yl)-15-oxo-3,6,9,12-tetraoxapentadecyl)amino)isoindoline-1,3-dione], the IC50 turned out to be 27.4 nM.

On to `Cc1ncsc1-c1ccc(CNC(=O)[C@@H]2C[C@@H](O)CN2C(=O)[C@@H](NC(=O)CCCCCCCCCC(=O)N2CCN(c3cccc(-c4cnc5ccc(N6CCC[C@@H]6c6cccc(F)c6)nn45)n3)CC2)C(C)(C)C)cc1` [CPD-022, (2S,4R)-1-((S)-2-(11-(4-(6-(6-((R)-2-(3-Fluorophenyl)pyrrolidin-1-yl)imidazo[1,2-b]pyridazin-3-yl)pyridin-2-yl)piperazin-1-yl)-11-oxoundecanamido)-3,3-dimethylbutanoyl)-4-hydroxy-N-(4-(4-methylthiazol-5-yl)benzyl)pyrrolidine-2-carboxamide], for which the IC50 amounted to 100 nM.

As for `O=C1CCC(N2C(=O)c3cccc(NCC(=O)N4CCN(c5cccc(-c6cnc7ccc(N8CCC[C@@H]8c8cccc(F)c8)nn67)n5)CC4)c3C2=O)C(=O)N1` (stereo partly drawn) [CPD-023, 2-(2,6-Dioxopiperidin-3-yl)-4-((2-(4-(6-(6-((R)-2-(3-fluorophenyl)pyrrolidin-1-yl)imidazo[1,2-b]pyridazin-3-yl)pyridin-2-yl)piperazin-1-yl)-2-oxoethyl)amino)isoindoline-1,3-dione], the IC50 is 14.9 nM.

The record behind these values is patent US12065442B2, “Tropomyosin receptor kinase (TRK) degradation compounds and methods of use” (Cullgen (Shanghai), Inc., priority 2018, dated 2024).
